# Measurements taken from patent publication US20180244653A1, “SELECTIVE ALPHA-7 NICOTINIC RECEPTOR AGONISTS AND METHODS FOR MAKING AND USING THEM” (THE REGENTS OF THE UNIVERSITY OF CALIFORNIA, priority 2015, published 2018).
# Several values for one entry are separate records, joined by “and”; a condition that tells them apart may be missing. Identical values can stand only once. Like-named read-outs stand apart in the source and are kept apart here.
# What was measured:
# α4β2-nAChRs = molecular target: T1, α4β2-nAChRs (Homo sapiens, UniProt P17787+P43681); assay: Intact cell competitive radioligand binding assay ([3H]-(±)-epibatidine, SPA), LGIC-CNiFERs
# T1 construct: expressed in transfected cells; host or cells: HEKtsA201 cells co-expressing TN-XXL
# α7-nAChRs = molecular target: T2, α7-nAChRs (Homo sapiens, UniProt P36544); assay: FRET functional assay (agonist/antagonist) using LGIC-CNiFERs; format: cell-based
# T2 construct: expressed in transfected cells; host or cells: HEKtsA201 cells co-expressing TN-XXL
# [1] = system: scopolamine-induced amnesic mice; assay: Modified Y-maze test; format: in vivo; settings: for Unfamiliar arm exploration / cognitive deficit, modified Y-maze vs scopolamine-treated group: i.p. 1 h before, scopolamine 1 mg/kg, doses as in the sentence; for Fold lower effective dose than PNU-282987, modified Y-maze: mouse, in vivo; for Minimum effective dose, Modified Y-maze: scopolamine induced amnesia model, ICR mice, i.p.
# Method: The modified Y-maze test was performed to evaluate spatial working memory. The experiment was divided into 3 sessions; (i) IND8 at 5, 10, and 50 μmol/kg or 1.5, 2.9, and 14.7 mg/kg doses, (ii) QND8 at 5, 10, and 50 μmol/kg or 1.4, 2.7, 13.5 mg/kg doses, and (iii) IND8 and QND8 at dose of 25 μmol/kg or 7.3 and 6.8 mg/kg, respectively and PNU-282987 at […] or 3, 10 mg/kg doses.
# FIG. 21 illustrates the percentage of unfamiliar arm exploration in modified Y-maze of IND8 (FIG. 21A), QND8 (FIG. 21B), and IND8, QND8, PNU-282987 (FIG. 21C). IND8, QND8, PNU-282987, vehicle (15% Tween80, SH) and tacrine (TC) were injected 1 h and scopolamine (SC) 30 min before sample phase, respectively. Each mouse was placed at the end of one arm and allowed to access 2 arms of Y-maze for 5 min in sample phase. After a 30 min period, the mouse was allowed to explore 3 arms for 5 min. The number of entries for each arm was recorded and the percentage of unfamiliar arm exploration was calculated. Data represented in means±standard errors (SE).
# Male ICR mice (6-weeks of age) were housed in 5 per cage with free access to food and tap water under 12 h light and dark cycle (light on 6:00 to 18:00) in a temperature and humidity controlled room. They were acclimated in a laboratory at least 7 days prior to starting experiments. The experimental protocols were approved by the Animal Care and Use Committee of KhonKaen University, Thailand.
# Tacrine hydrochloride (Sigma-Aldrich, St. Louis, Mo.), PNU-282987 hydrochloride (Alamone, Jerusalem, Israel) and test compounds were prepared as suspensions by using 15% tween 80 in distilled water as a vehicle, whereas scopolamine hydrochloride (Sigma-Aldrich, St. Louis, Mo.) and methyllycaconitine citrate (MLA) (Abcam, Cambridge, England) were prepared as a solution by dissolving with 0.9% normal saline solution (NSS). All compounds were administered by intraperitoneal (i.p.) injection in the amount of 5 mL/kg. Test compounds were injected 1 h and scopolamine was administered 30 min before the experiments, whereas MLA was injected 5 min before the test compounds.
# Amnesia was induced pharmacologically in mice via scopolamine injection (single dose) for 30 min prior to start the experiments. They were divided into vehicle group: receiving 15% tween 80 and 0.9% NSS, amnesia group: receiving scopolamine 1 mg/kg, standard positive control group receiving tacrine 1 mg/kg, and test group: receiving IND8, QND8 at dose 5, 10, 25, 50 μmol/kg, or PNU-282987 3, 10 mg/kg, single dose. All mice were acclimated in an experimental room at least 30 min before the experiments.
# The maze in this experiment is the same apparatus using in locomotor activity test except there is the black partition to close one of three arms. The mice were randomly separated into different treatment groups. They were injected with test compounds and scopolamine at 1 h and 30 min, respectively, before the sample phase. In this phase which one arm of Y-maze was closed by the black partition, each mouse was placed at the end of one arm and allowed to move through 2 arms for 5 min to get familiar with the two opened arms. After 30 min of resting, all arms were opened and the mouse was allowed to move freely through all 3 arms. The maze area and the partition were cleaned with 70% ethanol between each experiment to remove olfactory cues. The number of entries in each arm was counted visually if mice accessed into each arm at least 10 cm. The percentage of unfamiliar arm exploration was calculated as following equation: […]
# [2] = >10 = did not pass initial screen at 10 μM, read-out: Kd ± SD, α4β2
# [3] = in presence of 10 μM PNU-120596, * partial agonist, >10 = did not pass initial screen, read-out: Agonist EC50 ± SD, α7
SMILES,"Initial screening for binding to α4β2-nAChRs (α4β2-nAChRs; 10 μM, more than 50% radioligand displacement)",Kd (α4β2-nAChRs; [2]) [nM],Fold increase in α7-nAChR agonist potency over lead compound TTIn-1 (α7-nAChRs) [fold],EC50 (α7-nAChRs; [3]),"Unfamiliar arm exploration / cognitive deficit, modified Y-maze vs scopolamine-treated group [1]","Fold lower effective dose than PNU-282987, modified Y-maze [1]","Minimum effective dose, Modified Y-maze [1] [µmol/kg]",Kd (α4β2-nAChRs) [nM],"EC50 (α7-nAChRs; Agonist EC50 ± SD, α7) [nM]"
"c1cc2cc(-c3cn(C4CN5CCC4CC5)nn3)ccc2[nH]1 (stereo not shown) [IND8, 5-((Quinuclid-3-yl)-1H-1,2,3-triazol-4-yl)-1H-indole]",binds to α4β2-nAChRs,750,20,30 nM and 28 nM,reversed the cognitive deficit induced by scopolamine,seven-fold,5,,
"O=C(N[C@H]1CN2CCC1CC2)c1ccc(Cl)cc1 [PNU-282987, reference compound]",,,,,,,33,> 10000,110 ± 10
"Oc1ccc(-c2cn(C3CN4CCC3CC4)nn2)cc1 (stereo not shown) [QND8, 3-(4-hydroxyphenyl-1,2,3-triazol-1-yl) quinuclidine]",,> 10000,20,40 nM and 37 nM,improved the cognitive deficit significantly only at the 2.7 mg/kg dose,four-fold,10,,
